Data on three compounds can be found in patent US6331565A, “Dicaffeoylquinic acid for treating hepatitis B and the diseases associated with retrovirus, and the new caffeoylquinic acid derivatives” (Institute of Radiation Medicine Academy of Military Medical …, priority 1996, dated 2001).

Where two headings read alike, the source gives them in different places.

Experiment [1] concerns DHBV. As to the kind of experiment: anti-DHBV test in ducks (serum DHBV DNA dot blot). Format: in vivo, DHBV in Peking (Beijing) ducks. Conditions: for DHBV DNA, grayness of the dot: 50 mg/kg, X ± SD, n = 7. The protocol: One-day-old ducklings were infected with a 200 μl intravenous injection of DHBV-positive serum containing 10^11 viral genome equivalents per milliliter. Treatment began when ducklings were 7 days old. A total 89 seven-day-old viraemic ducks were distributed at random into five groups. […] Post-treatment follow-up was carried over a period of 5 days. Blood samples were obtained repectively from the leg vein of all ducks and stored at -70° C. after serum separation, prior to treatment, weekly during the treatment, and for 5 days after cessation of treatment. They were screened for presence of DHBV DNA by dot blot hybridization.
DHBV DNA in serum was analyzed by molecular hybridization using full length DHBV DNA clones in PB325. The DHBV DNA insert was purified by agarose gel electrophoresis after digestion with EcoRI. The DHBV DNA was radiolabeled with α^32 P-dCTP random oligopriming with Klenow fragment. Dot blot hybridization was carried out by the method of Scotto et al. Briefly, an aliquot (200 μl) serum was spotted onto a nylon membrane (Hybond-N, Amersham International, England) in dot blot manifold and denatured with 0.5 M NaOH--NaCl at room temperature for 30 min. Each spotted sample was neutralized in 1M Tris.HCl-1.5M NaCl (pH8.0). The DNA on the membrane was fixed by heating at 80° C. for 2 h, and prehybridization at 37° C. overnight in 50% formamide, 5×Denhardt's, 6×SSC,[…], 0.5% SDS and 10 mg/ml of calf thymus DNA. Hybridization was initiated by adding DHBV [^32 P] DNA probes at 10^6 cpm/ml at the same prehybridization conditions overnight. The membrane was washed in 3×SSC-0.1% SDS at room temperature, 42° C. and 65° C. for 10 min respectively. After hybridization the membranes were air-dried and exposed for periods of up to 14 days at -70° C. with Kodak film with an enhancer screen. The amount of viral DNA were assayed by both densitometry and image analysis of autoradiographic membranes.

Experiment [2] deals with HBeAg. As to the kind of experiment: microbe, parasite or virus in culture. Format: cell-based, HBV. Conditions: ACV, concentration not given. The protocol:
(§1) The cultures were passenged by trypsinization every 4 days.
(§2) HBsAg and HBeAg in the culture medium were determined according to the protocol respectively. The culture medium (200 μl) was absorbed on beads containing antibody to HBsAg/HBeAg in the presence of the conjugate. After overnight incubation, the beads were washed 6 times with […] PBS containing 0.05% Tween-80 and incubated with 200 μl of [^125 I] anti-HBs(Hbe) overnight. The beads were washed 6 times as above. The amounts HBsAg/HBeAg as measure of cpm of [^125 I] labeled immunocomplex was counted on γ-counter.

Experiment [3] concerns HBsAg. Briefly: microbe, parasite or virus in culture. The class given is cell-based, HBV. As to conditions: ACV, concentration not given. The protocol: as §1, §2
Experiment [4] has as its system lymphocyte proliferation induced by Con A. As to conditions: 50 mg/kg; for RPI: Normal = 100. The protocol: mice. Five-wk-old female C57BL/6 mice were used throughout the experiments. All mice were housed in sterile cages in a room supplied with filtrated air. They were given pelleted food and chlorinated water ad libitum.
Infection with LP-BM5 MuLV. Cell-free supernatants of LP-BM5 MULV were prepared by cocultivating G6 SC-1 clones with normal SC-1 cells for 5 days. Mice were inoculated intraperitoneally with 150 μl of stock solution containing 10^3,4×C plaque-forming units and 10^2,3 Mink-cell focks-forming units per […].
Then, the spleens were collected. Cell suspensions were prepared by repeated passage of whole spleen through a pipette, the capsule and debris were allowed to settle, and the supernatants containing cells were collected and washed twice in PBS. […] Incubation continued for 16 hr, then cells were collected on filter that was determined by a scintillation counter.

For experiment [5], the target named is T1, HBV DNA polymerase (Hepatitis B virus genotype D subtype ayw, UniProt P03156).
T1 construct: HBV DNA polymerase in viral particles; host or cells: viral particles
T1 sequence (P03156 whole entry): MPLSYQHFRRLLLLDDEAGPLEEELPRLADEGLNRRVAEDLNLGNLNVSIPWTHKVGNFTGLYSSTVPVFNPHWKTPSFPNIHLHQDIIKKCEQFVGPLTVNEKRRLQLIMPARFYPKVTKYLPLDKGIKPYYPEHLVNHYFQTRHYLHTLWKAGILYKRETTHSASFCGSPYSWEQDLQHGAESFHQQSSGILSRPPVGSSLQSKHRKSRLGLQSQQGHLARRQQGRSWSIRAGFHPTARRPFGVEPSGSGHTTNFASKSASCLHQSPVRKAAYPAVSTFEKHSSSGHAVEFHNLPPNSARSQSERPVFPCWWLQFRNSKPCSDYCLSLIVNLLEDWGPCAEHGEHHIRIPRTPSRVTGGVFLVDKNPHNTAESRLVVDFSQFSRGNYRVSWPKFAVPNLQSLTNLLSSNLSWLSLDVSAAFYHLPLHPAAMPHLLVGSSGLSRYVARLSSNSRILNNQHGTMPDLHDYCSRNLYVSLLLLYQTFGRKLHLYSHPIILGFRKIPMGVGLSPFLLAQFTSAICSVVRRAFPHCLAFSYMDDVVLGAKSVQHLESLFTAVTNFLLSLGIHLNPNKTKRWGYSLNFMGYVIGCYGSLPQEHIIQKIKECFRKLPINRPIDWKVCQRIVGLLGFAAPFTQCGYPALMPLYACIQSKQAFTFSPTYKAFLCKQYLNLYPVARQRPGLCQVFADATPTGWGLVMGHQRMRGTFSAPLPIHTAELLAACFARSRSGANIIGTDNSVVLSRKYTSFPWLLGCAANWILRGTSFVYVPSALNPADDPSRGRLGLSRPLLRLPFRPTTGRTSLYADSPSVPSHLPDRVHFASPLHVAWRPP
As to the kind of experiment: HBV DNA polymerase assay. The class given is biochemical. The protocol:
Assay was performed as described by Hantz (Antiviral Res 4(1984) 187-199) with minor modification. The Reaction mixture consisted of HBV DNA polymerase in viral particles in 200 mmol.l^-1 of Tris-HCl pH 7.6, 200 mmol.l^-1 of NH4 Cl. 50 mmol.l^-1 of MgCl2, 10 mmol.l^-1 of 2-mercaptoethanol, 2% Nonidet P-40 and 300 μmol.l^-1 concentrations of deoxynucleotide triphosphates except for [^3 H]dTTP, which was included in the assay at 20 μci.ml^-1. […] The mixtures were incubated at 37° C. for 4 h prior to spotting on Whatman No.3 filter paper which was washed 4 times with cold 5% trichloroacitic acid, then with ethanol. The HBV DNA polymerase activity as measure of the incorperation of the radionucleotide into the viral DNA was counted in a Recbeta (LKB)scintilation counter.

As to `Nc1nc2c(ncn2COCCO)c(=O)[nH]1` [ACV, acyclovir, reference compound], the “DHBV DNA, grayness of the dot” value in experiment [1] (P5 (day 5 after withdrawal)) amounted to 9.0 ± 8.6 K Grayness; in experiment [1] (day 0 (before treatment), oral), 6.3 ± 4.2 K Grayness; in experiment [1] (day 7, oral) it was 0.1 ± 0.3 K Grayness; in experiment [1] (day 14, oral), 0.0 ± 0 K Grayness. Further, the “viraemia returned to a level higher than that of pretreatment by” value in experiment [1] (day 5 after cessation of treatment) was 43%. The “DHBV DNA from the sera” value in experiment [1] (during the 14 days of therapy, all 7 treated birds) was “substantial decrease of DHBV DNA from the sera”. The “HBeAg Inhibit rate (%)” value is reported as 26.22 ± 1.17% in experiment [2] (day 4), 26.75 ± 1.21% in experiment [2] (day 8) and 3.71 ± 1.36% in experiment [2] (day 12). The HBeAg cpm in experiment [2] (day 4) stood at 3910.9 ± 57.6 cpm; in experiment [2] (day 8), 6101.9 ± 96.17 cpm; in experiment [2] (day 12), 8194.1 ± 111.5 cpm. The results for the “HBsAg Inhibit rate (%)” value in experiment [3] (day 4), in experiment [3] (day 8) and in experiment [3] (day 12) were 48.20%, 29.54 ± 5.15% and 23.22%, respectively. Moreover, the HBsAg cpm is listed as 710.1 ± 65.7 cpm in experiment [3] (day 4), 870.1 ± 51.1 cpm in experiment [3] (day 8) and 622.5 ± 58.8 cpm in experiment [3] (day 12).

On to `Cc1cn([C@H]2C[C@H](N=[N+]=[N-])[C@@H](CO)O2)c(=O)[nH]c1=O` [AZT], for which the cpm was 53287 ± 2043 cpm in experiment [4] (Con A (5 μg/ml)) and 33212 ± 2609 cpm in experiment [4] (Con A ([…])). For the same compound, the figures for the RPI in experiment [4] (Con A (5 μg/ml)) and in experiment [4] (Con A ([…])) were 95.10 and 93.21, respectively.

As to `O=C(O)P(=O)(O)O` [PFA, reference compound], in experiment [5], the IC50 was 184 µM and the “inhibitory effect on HBV DNAp” value is given as “dose-dependent inhibitory effect”. For the same compound, the cpm in experiment [5] (1 μg/ml) was 10267 ± 77 cpm. Also, the cpm in experiment [5] (10 μg/ml) worked out at 5495 ± 218 cpm. This compound also came in with a cpm in experiment [5] (100 μg/ml) of 3065 ± 67 cpm. This compound also showed a cpm in experiment [5] (1000 μg/ml) of 2377 ± 329 cpm. Moreover, in experiment [5] (read-out: Inhibitory rate (%)), the inhibition at 1 µg/mL was -5.2 ± 15.3%, the inhibition at 10 µg/mL was found to be 44.4 ± 2.3%, the inhibition at 100 µg/mL turned out to be 69.7 ± 0.7% and the inhibition at 1000 µg/mL is 76.8 ± 3.4%.

By IC50 is commonly meant the concentration that inhibits the measured activity by half. Read a low IC50 as greater potency in that assay.
